This passage reports IC50 and bioavailability results from US20230365595A1, “INHIBITORS OF KRAS(G12D)” (Ranok Therapeutics (Hangzhou) Co. Ltd., priority 2022, published 2023).

Usually bioavailability stands for the share of a dose that reaches the circulation, judged against a reference dose that is usually intravenous. A high value points to good availability.

One data set has as its system AGS cells. The data set can be described thus: CellTiter-Glo cell cytotoxicity, AGS. Type of data set: cell-based. The note with it: AGS human gastric adenocarcinoma, 1 copy of KRAS(G12D), read-out: AGS 72H CTG. Here is the method: (§1) The following cancer cell lines were employed: A427 human lung carcinoma [1 copy of KRAS(G12D)] (ATCC, #HTB-53); AGS human gastric adenocarcinoma [1 copy of KRAS(G12D)] (ATCC, #CRL-1739); and AsPC-1 human adenocarcinoma [2 copies of KRAS(G12D)] (ATCC, CRL-1682). Cell lines were cultured essentially according to American Type Culture Collection (ATCC) recommendations.
A427 and AGS cells were plated in 96-well tissue culture plates at 4,000 cells/well and incubated at 37° C/5% CO2 for 72 hr in 100 μl of media. 3-fold serial dilutions of each test compound were prepared ranging from 20 μM to 1.02 nM. […]
(§2) […] 100 Ill of CellTiter-Glo® Reagent (Promega Corporation, Madison, WI) was added to each well and processed according manufacturer's protocol. Results were analyzed and IC50 values were calculated in GraphPad 7 software.
(In general: ATP-based viability assays read luminescence as a measure of living cells.)

The test system of the next data set is A427 cells. Description: CellTiter-Glo cell cytotoxicity, A427. The following applies: A-427, 72 h, A427 human lung carcinoma, 1 copy of KRAS(G12D), read-out: A427 72H CTG. In kind it is cell-based. The protocol:
as §1
A427 and AGS cells were plated in 96-well tissue culture plates at 4,000 cells/well and incubated at 37° C/5% CO2 for 72 hr in 100 μl of media. 3-fold serial dilutions of each test compound were prepared ranging from 20 μM to 1.02 nM. Each cell line was then treated with test compounds at various concentrations with a final concentration of 0.5%
as §2

The target in a further data set is T1, KRAS(G12D)-SOS1 (Homo sapiens, UniProt P01116, G12D).
T1 construct: purchased Cisbio 63ADK000CB16PEG
Description: KRAS(G12D)/SOS1 HTRF binding assay. The following applies: absence of GTP; 4° C. for 3 hr. The protocol:
Binding of test compounds to KRAS(G12D) target protein, which in turn blocks KRAS(G12D) interaction with the SOS1 protein, was measured in the absences of GTP by homogeneous time-resolved fluorescence using the KRAS-G12D/SOS1 Binding Assay Kit (Cisbio, #63ADK000CB16PEG), following the manufacturer's instructions, except as noted. 3-fold serial dilutions of each test compound were prepared ranging from 20 μM to 1.02 nM. The test compound was mixed and incubated with reaction components, incubated in a sealed plate at 4° C. for 3 hr and fluorescence was measured using a PerkinElmer Envision plate reader. The KRAS(G12D)-SOS1 IC50 values (the concentration of 50% of the maximal inhibition) were calculated using GraphPad Prism 7 software.

Data set [1] is described as follows: Oral bioavailability in CD-1 mice. The note with it: male, CD-1, mouse, blood, 50 mg/kg.
Description: (§3) CD-1 mice were randomly assigned to δgroups with 3 male mice in each compound group. […] Compounds were orally administered (PO) in a single dose to each mouse in its group. Blood samples were taken within 72 hours. Bioavailability (F%) was determined and by liquid chromatography-mass spectrometry (LC-MS/MS).
The next data set is described as follows: in vivo. The following applies: male, CD-1, mouse, po, 50 mg/kg.

T1 sequence (P01116 1-188 isoform P01116-2 G12D): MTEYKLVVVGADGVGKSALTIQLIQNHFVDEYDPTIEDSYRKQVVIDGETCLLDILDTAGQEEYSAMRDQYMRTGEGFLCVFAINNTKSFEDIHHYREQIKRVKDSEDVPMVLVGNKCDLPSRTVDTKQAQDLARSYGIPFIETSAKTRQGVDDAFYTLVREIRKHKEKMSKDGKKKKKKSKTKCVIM
Description for in vivo: as §3

Take `C#Cc1c(F)ccc2cc(O)cc(-c3ncc4c(N5CC6CCC(C5)N6)nc(OCC5(CN6CCC(F)CC6)CC5)nc4c3F)c12` [drawing 111]: the IC50 in the data set with AGS cells and with A427 cells was 0.001 to 0.1 µM each time. Consider `C#Cc1c(F)ccc2cc(O)cc(-c3ncc4c(N5CC6CCC(C5)N6C(=O)C(F)(F)F)nc(OCC5(CN6CC7CC7C6)CC5)nc4c3F)c12` (stereo not drawn) [drawing 114], for which the IC50 in the data set on AGS cells was 0.001 to 0.1 µM; in the data set on A427 cells, 1 to 10 µM.

Turning to `C#Cc1c(F)ccc2cc(O)cc(-c3ncc4c(N5CC6CCC(C5)N6)nc(OCC5(CN6CC7CC7C6)CC5)nc4c3F)c12` (stereo not drawn) [drawing 115], the IC50 on KRAS(G12D)-SOS1, in the data set with AGS cells and in the data set with A427 cells was 0.001 to 0.1 µM in each case. As to `C#Cc1c(F)ccc2cc(O)cc(-c3ncc4c(N5CC6CCC(C5)N6C(=O)C(F)(F)F)nc(OCC5(CN6CCC(F)CC6)CC5)nc4c3F)c12` [drawing 110], the IC50 on KRAS(G12D)-SOS1, in the data set on AGS cells and in the data set with A427 cells was 0.001 to 0.1 µM each time. As to `C#Cc1c(F)ccc2cc(O)cc(-c3ncc4c(N5CC6CCC(C5)N6)nc(OCC5(CN6CCC(F)CC6)CC5)nc4c3F)c12` [drawing 117], the bioavailability in data set [1] came out at 0.82%. Still for that read-out and setting: the value for `C#Cc1c(F)ccc2cc(O)cc(-c3ncc4c(N5CC6CCC(C5)N6)nc(OCC5(CN6CC7CC7C6)CC5)nc4c3F)c12` (stereo not drawn) [drawing 121] was 0.47%. In the case of `C#Cc1c(F)ccc2cc(O)cc(-c3ncc4c(N5CC6CCC(C5)N6C(=O)C(F)(F)F)nc(OC[C@]56CCCN5C[C@@H](F)C6)nc4c3F)c12` [drawing 112], the values for the IC50 in the data set on AGS cells and with A427 cells were 0.001 to 0.1 µM and 1 to 10 µM, respectively. On to `C#Cc1c(F)ccc2cc(O)cc(-c3ncc4c(N5CC6CCC(C5)N6)nc(OC[C@]56CCCN5C[C@@H](F)C6)nc4c3F)c12`, for which the bioavailability in data set [1] was determined as 0.45%. Consider `C#Cc1c(F)ccc2cc(O)cc(-c3ncc4c(N5CC6CCC(C5)N6C(=O)C(F)(F)F)nc(OCC5(CN6CCC(F)CC6)CC5)nc4c3F)c12` [drawing 116], for which the bioavailability in data set [1] turned out to be 12.4%. On the same count and under the same terms, the value for `C#Cc1c(F)ccc2cc(O)cc(-c3ncc4c(N5CC6CCC(C5)N6C(=O)C(F)(F)F)nc(OC[C@]56CCCN5C[C@@H](F)C6)nc4c3F)c12` [drawing 118] was 15.8%. The molecule `C#Cc1c(F)ccc2cc(O)cc(-c3ncc4c(N5CC6CCC(C5)N6C(=O)C(F)(F)F)nc(OCC5(CN6CC7CC7C6)CC5)nc4c3F)c12` (stereo not drawn) [drawing 120] came in with a bioavailability in “in vivo” of 17.4%.
